In patent US9315505B2, “Heterocyclic compounds and uses thereof” (INTELLIKINE LLC, priority 2009, dated 2016):
Read-outs that look alike come from different tables or passages of the source.

What was measured:
PI3K δ = target: T1, PI3K δ (Homo sapiens, UniProt O00329); experiment: In vitro IC50, PI3K δ (p110δ/p85α inhibition assay); assay type: biochemical
T1 construct: purchased Upstate
Protocol: (§1) IC50 values are measured using either a standard TLC assay for lipid kinase activity (described below) or a high-throughput membrane capture assay. Kinase reactions are performed by preparing a reaction mixture containing kinase, inhibitor (2% DMSO final concentration), buffer (25 mM HEPES, pH 7.4, 10 mM MgCl2), and freshly sonicated phosphatidylinositol (100 μg/ml). Reactions are initiated by the addition of ATP containing 10 μCi of γ-32P-ATP to a final concentration 10 or 100 μM and allowed to proceed for 5 minutes at room temperature. For TLC analysis, reactions are then terminated by the addition of 105 μl 1N HCl followed by 160 μl CHCl3:MeOH (1:1). The biphasic mixture is vortexed, briefly centrifuged, and the organic phase is transferred to a new tube using a gel loading pipette tip precoated with CHCl3. This extract is spotted on TLC plates and developed for 3-4 hours in a 65:35 solution of n-propanol:1M acetic acid. The TLC plates are then dried, exposed to a phosphorimager screen (Storm, Amersham), and quantitated.
(§2) Other commercial kits or systems for assaying PI3-K activities are available. The commercially available kits or systems can be used to screen for inhibitors and/or agonists of PI3-Ks including but not limited to PI 3-Kinase α, β, δ, and γ. An exemplary system is PI 3-Kinase (human) HTRF™ Assay from Upstate. […] Briefly, the assay is a time resolved FRET assay that indirectly measures PIP3 product formed by the activity of a PI3-K. The kinase reaction is performed in a microtitre plate (e.g., a 384 well microtitre plate). The total reaction volume is approximately 20 ul per well. In the first step, each well receives 2 ul of test compound in 20% dimethylsulphoxide resulting in a 2% DMSO final concentration. Next, approximately 14.5 ul of a kinase/PIP2 mixture (diluted in 1× reaction buffer) is added per well for a final concentration of 0.25-0.3 ug/ml kinase and 10 uM PIP2. The plate is sealed and incubated for 15 minutes at room temperature. To start the reaction, 3.5 ul of ATP (diluted in 1× reaction buffer) is added per well for a final concentration of 10 uM ATP. The plate is sealed and incubated for 1 hour at room temperature. The reaction is stopped by adding 5 ul of Stop Solution per well and then 5 ul of Detection Mix is added per well. The plate is sealed, incubated for 1 hour at room temperature, and then read on an appropriate plate reader. Data is analyzed and IC50s are generated using GraphPad Prism 5.

PI3K γ = target: T2, PI3K γ (Homo sapiens, UniProt P48736); experiment: In vitro IC50, PI3K γ (p110γ inhibition assay); assay type: biochemical; settings: in vitro kinase assay
T2 construct: purchased Sigma
T2 sequence (P48736 whole entry): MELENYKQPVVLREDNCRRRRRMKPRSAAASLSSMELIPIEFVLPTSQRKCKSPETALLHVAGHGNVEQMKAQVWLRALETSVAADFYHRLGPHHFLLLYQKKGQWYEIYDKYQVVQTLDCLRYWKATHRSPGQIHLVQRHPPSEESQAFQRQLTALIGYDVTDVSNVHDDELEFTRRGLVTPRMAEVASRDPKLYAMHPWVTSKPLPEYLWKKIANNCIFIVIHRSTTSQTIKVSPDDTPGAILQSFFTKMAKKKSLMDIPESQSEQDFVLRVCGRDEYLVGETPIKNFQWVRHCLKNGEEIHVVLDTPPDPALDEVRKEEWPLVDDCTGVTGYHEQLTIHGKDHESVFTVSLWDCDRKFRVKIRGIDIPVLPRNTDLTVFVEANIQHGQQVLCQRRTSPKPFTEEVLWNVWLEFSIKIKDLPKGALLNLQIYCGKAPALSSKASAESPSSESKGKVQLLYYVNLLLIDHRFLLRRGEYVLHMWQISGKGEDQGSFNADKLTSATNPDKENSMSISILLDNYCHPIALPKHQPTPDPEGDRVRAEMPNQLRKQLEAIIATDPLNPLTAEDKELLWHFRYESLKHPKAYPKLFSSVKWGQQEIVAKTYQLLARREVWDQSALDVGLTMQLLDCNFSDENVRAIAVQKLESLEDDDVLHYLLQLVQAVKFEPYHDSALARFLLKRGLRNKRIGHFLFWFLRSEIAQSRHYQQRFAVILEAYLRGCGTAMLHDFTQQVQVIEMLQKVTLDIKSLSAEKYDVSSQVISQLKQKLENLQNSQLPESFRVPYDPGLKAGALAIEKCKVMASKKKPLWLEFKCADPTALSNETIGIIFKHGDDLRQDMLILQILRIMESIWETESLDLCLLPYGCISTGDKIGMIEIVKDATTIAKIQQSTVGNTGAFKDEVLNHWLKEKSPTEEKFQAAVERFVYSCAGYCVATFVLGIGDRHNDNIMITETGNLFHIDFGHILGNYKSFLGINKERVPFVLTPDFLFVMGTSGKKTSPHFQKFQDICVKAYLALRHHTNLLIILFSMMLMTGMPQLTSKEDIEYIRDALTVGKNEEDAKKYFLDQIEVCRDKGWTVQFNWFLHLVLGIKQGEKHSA
Protocol: as §1, with “Class I PI3-Ks can be either purchased (p110α/p85α, p110β/p85α, p110δ/p85α from Upstate, and p110γ from Sigma) or expressed as previously described (Knight et al., 2004). IC50” for “IC50”, “quantitated. For each compound, kinase activity is measured at 10-12 inhibitor concentrations representing two-fold dilutions from the highest concentration tested (typically, 200 μM).” for “quantitated.”
as §2

PI3K α = target: T3, PI3K α (Homo sapiens, UniProt P42336); experiment: In vitro IC50, PI3K α (p110α/p85α inhibition assay); assay type: biochemical
T3 construct: purchased Upstate
T3 sequence (P42336 whole entry): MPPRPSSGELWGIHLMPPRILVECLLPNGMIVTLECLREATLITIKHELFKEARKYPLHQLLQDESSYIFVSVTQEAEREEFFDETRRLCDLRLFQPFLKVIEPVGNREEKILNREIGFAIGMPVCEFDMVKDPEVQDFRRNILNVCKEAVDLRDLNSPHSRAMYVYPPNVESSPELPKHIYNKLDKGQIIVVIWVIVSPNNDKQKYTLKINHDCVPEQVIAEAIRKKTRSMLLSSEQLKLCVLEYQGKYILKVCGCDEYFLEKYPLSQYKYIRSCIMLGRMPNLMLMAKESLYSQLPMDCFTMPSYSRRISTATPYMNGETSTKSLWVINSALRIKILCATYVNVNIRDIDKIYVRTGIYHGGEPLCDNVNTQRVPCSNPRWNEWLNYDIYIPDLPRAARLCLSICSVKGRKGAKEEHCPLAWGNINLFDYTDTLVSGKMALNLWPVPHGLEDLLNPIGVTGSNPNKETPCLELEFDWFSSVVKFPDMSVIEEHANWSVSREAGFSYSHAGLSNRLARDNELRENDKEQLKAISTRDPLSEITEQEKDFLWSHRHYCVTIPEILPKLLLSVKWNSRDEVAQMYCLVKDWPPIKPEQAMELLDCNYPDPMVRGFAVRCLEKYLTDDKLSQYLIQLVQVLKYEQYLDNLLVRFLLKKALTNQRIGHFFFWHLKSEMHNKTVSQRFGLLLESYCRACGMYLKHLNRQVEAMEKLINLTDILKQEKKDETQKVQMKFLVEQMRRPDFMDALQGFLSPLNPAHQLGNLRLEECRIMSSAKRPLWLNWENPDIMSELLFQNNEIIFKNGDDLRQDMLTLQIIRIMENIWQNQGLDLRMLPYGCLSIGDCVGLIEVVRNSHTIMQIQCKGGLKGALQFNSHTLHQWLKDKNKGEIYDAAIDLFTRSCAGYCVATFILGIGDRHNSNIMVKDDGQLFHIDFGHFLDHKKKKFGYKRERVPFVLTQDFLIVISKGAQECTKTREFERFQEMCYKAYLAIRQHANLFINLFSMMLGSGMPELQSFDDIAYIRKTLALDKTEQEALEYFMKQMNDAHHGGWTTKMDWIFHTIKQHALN
T3 sequence (P27986 whole entry partner): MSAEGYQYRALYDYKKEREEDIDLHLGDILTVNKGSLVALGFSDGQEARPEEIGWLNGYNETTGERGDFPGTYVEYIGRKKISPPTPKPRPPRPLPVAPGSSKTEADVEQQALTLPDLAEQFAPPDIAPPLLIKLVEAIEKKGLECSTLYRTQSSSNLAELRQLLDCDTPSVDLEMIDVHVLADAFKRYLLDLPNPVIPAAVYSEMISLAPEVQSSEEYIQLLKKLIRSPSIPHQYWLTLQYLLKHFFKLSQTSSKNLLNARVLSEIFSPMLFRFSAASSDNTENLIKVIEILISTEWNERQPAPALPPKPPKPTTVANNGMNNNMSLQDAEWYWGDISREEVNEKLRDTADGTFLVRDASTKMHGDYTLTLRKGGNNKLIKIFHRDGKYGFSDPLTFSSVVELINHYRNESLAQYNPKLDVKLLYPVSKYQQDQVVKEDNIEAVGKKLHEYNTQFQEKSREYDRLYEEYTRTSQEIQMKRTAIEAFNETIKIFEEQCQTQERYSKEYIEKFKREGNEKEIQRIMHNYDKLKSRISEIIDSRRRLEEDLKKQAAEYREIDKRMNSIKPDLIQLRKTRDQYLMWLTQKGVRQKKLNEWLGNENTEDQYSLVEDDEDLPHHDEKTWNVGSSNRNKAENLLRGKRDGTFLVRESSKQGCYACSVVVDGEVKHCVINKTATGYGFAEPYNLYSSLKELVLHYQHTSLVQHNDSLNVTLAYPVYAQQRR
Protocol: as §1, §2

Balb/c splenic B cells = experiment: B cell activation and proliferation assay (Alamar Blue); assay type: cell-based; settings: Mus musculus
Protocol: The ability of one or more subject compounds to inhibit B cell activation and proliferation is determined according to standard procedures known in the art. For example, an in vitro cellular proliferation assay is established that measures the metabolic activity of live cells. The assay is performed in a 96 well microtiter plate using Alamar Blue reduction. Balb/c splenic B cells are purified over a Ficoll-Paque™ PLUS gradient followed by magnetic cell separation using a MACS B cell Isolation Kit (Miletenyi). Cells are plated in 90 ul at 50,000 cells/well in B Cell Media (RPMI+10% FBS+Penn/Strep+50 uM bME+5 mM HEPES). A compound disclosed herein is diluted in B Cell Media and added in a 10 ul volume. Plates are incubated for 30 min at 37 C and 5% CO2 (0.2% DMSO final concentration). A 50 ul B cell stimulation cocktail is then added containing either 10 ug/ml LPS or 5 ug/ml F(ab′)2 Donkey anti-mouse IgM plus 2 ng/ml recombinant mouse IL4 in B Cell Media. Plates are incubated for 72 hours at 37° C. and 5% CO2. A volume of 15 uL of Alamar Blue reagent is added to each well and plates are incubated for 5 hours at 37 C and 5% CO2. Alamar Blue fluoresce is read at 560Ex/590Em, and IC50 or EC50 values are calculated using GraphPad Prism 5.

[1] = in vitro kinase assay, read-out: IC50(nM) PI3K δ
[2] = in vitro kinase assay, read-out: IC50(nM) PI3K α
[3] = read-out: B cell proliferation EC50

T1 sequence (O00329 whole entry): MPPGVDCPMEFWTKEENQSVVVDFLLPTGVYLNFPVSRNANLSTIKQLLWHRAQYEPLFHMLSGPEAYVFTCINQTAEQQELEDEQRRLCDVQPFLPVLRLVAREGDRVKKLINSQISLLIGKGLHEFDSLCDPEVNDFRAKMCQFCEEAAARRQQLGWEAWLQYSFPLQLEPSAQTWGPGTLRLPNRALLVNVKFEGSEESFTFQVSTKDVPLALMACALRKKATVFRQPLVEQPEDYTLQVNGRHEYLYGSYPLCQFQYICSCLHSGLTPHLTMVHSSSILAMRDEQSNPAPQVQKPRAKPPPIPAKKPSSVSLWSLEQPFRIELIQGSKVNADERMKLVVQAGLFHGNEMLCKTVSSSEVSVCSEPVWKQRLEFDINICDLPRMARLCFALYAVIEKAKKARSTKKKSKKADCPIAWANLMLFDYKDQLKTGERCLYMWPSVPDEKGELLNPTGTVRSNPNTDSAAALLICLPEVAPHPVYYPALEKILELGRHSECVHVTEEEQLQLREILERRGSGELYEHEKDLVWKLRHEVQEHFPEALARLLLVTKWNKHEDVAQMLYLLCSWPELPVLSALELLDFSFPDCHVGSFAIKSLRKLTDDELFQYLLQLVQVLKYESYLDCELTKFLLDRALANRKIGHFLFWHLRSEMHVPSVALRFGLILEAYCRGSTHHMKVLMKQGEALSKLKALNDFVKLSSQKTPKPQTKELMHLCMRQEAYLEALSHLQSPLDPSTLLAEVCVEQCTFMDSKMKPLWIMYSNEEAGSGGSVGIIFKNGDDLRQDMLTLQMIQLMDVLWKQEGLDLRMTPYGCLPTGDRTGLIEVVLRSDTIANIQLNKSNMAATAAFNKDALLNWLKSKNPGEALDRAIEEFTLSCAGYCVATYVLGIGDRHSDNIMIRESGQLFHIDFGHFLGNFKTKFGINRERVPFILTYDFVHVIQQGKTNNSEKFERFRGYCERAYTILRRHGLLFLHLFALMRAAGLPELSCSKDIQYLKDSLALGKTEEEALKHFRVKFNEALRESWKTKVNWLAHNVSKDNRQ
T1 sequence (P27986 whole entry partner): as the sequence (P27986 whole entry partner) above

SMILES	IC50 (PI3K δ; [1]) [nM]	IC50 (PI3K γ) [nM]	IC50 (PI3K α; [2]) [nM]	IC50 (PI3K δ) [nM]	IC50 (PI3K α) [nM]	EC50 (Balb/c splenic B cells; [3]) [nM]	EC50 (Balb/c splenic B cells; read-out: B cell proliferation EC50 (nM)) [nM]
Cc1cccc2cc(C(C)Nc3ncnc4[nH]cnc34)nc(OC3CCN(C)CC3)c12 (stereo not drawn) [Compound 15]	–	> 10000	–	< 100	> 10000	–	< 100
Cc1cccc2cc(C(C)Nc3ncnc4[nH]cnc34)nc(CCN3CCOCC3)c12 (stereo not drawn) [Compound 38]	< 100	< 10000	–	–	–	< 100	–
Cc1cccc2cc(C(C)Nc3ncnc4[nH]cnc34)nc(CCN3CCCC3)c12 (stereo not drawn) [Compound 39]	< 100	> 10000	–	–	–	< 100	–
Cc1cccc2cc(C(C)Nc3ncnc4[nH]cnc34)nc(NCCN3CCOCC3)c12 (stereo not drawn) [Compound 42]	< 100	> 10000	–	–	–	< 1000	–
Cc1cccc2cc(C(C)Nc3ncnc4[nH]cnc34)nc(N3CCOCC3)c12 (stereo not drawn) [Compound 44]	< 100	< 10000	–	–	–	< 1000	–
Cc1cccc2cc(C(C)Nc3ncnc4[nH]cnc34)nc(OCC3CCN(C)CC3)c12 (stereo not drawn) [Compound 45]	< 100	> 10000	–	–	–	< 100	–
CCN1CCC(COc2nc(C(C)Nc3ncnc4[nH]cnc34)cc3cccc(C)c23)CC1 (stereo not drawn) [Compound 46]	< 100	> 10000	–	–	–	< 100	–
C[C@H](Nc1ncnc2[nH]cnc12)c1cc2cccc(Cl)c2c(N2CCN(S(C)(=O)=O)C[C@@H]2C)n1 [Compound 85]	< 100	< 100	< 1000	–	–	–	–
C[C@H](Nc1ncnc2[nH]cnc12)c1cc2cccc(Cl)c2c(N2CCN(S(C)(=O)=O)C[C@H]2C)n1 [Compound 86]	< 1000	< 1000	> 10000	–	–	–	–
Cc1cccc2cc([C@@H](C)Nc3ncnc4[nH]cnc34)nc(OC3CCN(S(C)(=O)=O)CC3)c12 [Compound 87]	< 10000	> 10000	> 10000	–	–	–	–
C[C@H](Nc1ncnc2[nH]cnc12)c1cc2cccc(Cl)c2c(CCN2CCC2)n1 [Compound 88]	< 100	< 10000	< 10000	–	–	–	–
C[C@H](Nc1ncnc2[nH]cnc12)c1cc2cccc(Cl)c2c(CCN2CC(F)(F)C2)n1 [Compound 89]	< 100	< 1000	< 10000	–	–	–	–
C[C@H](Nc1ncnc2[nH]cnc12)c1cc2cccc(Cl)c2c(CCN2CCCC2)n1 [Compound 90]	< 100	< 10000	< 10000	–	–	–	–
C[C@H](Nc1ncnc2[nH]cnc12)c1cc2cccc(Cl)c2c(CCN2CCC(F)(F)C2)n1 [Compound 91]	< 100	< 10000	< 10000	–	–	–	–
C[C@H](Nc1ncnc2[nH]cnc12)c1nc(N2CCCC2)c2c(Cl)cccc2n1 [Compound 92]	< 1000	> 10000	> 10000	–	–	–	–
C[C@H](Nc1ncnc2[nH]cnc12)c1nc(N2CCOCC2)c2c(Cl)cccc2n1 [Compound 93]	< 10000	> 10000	> 10000	–	–	–	–
C[C@H](Nc1ncnc2[nH]cnc12)c1nc(N2CCN(S(C)(=O)=O)CC2)c2c(Cl)cccc2n1 [Compound 94]	< 1000	< 10000	> 10000	–	–	–	–
C[C@H](Nc1ncnc2[nH]cnc12)c1nc(OCCN2CCCC2)c2c(Cl)cccc2n1 [Compound 95]	< 100	< 10000	< 10000	–	–	–	–
CC(=O)N1CCN(c2nc([C@H](C)Nc3ncnc4[nH]cnc34)nc3cccc(Cl)c23)CC1 [Compound 96]	< 1000	< 1000	> 10000	–	–	–	–

Now from value to compound, other results behind:

IC50 (PI3K δ; [1]) [nM]	IC50 (PI3K γ) [nM]	IC50 (PI3K α; [2]) [nM]	IC50 (PI3K δ) [nM]	IC50 (PI3K α) [nM]	SMILES	EC50 (Balb/c splenic B cells; [3]) [nM]	EC50 (Balb/c splenic B cells; read-out: B cell proliferation EC50 (nM)) [nM]
< 100	< 100	< 1000	–	–	Nc1nc2cc(-c3nn(Cc4cc5ccccc5c(N5CCCC5)n4)c4ncnc(N)c34)ccc2o1 [Compound 1]	< 1000	–
< 100	< 100	< 1000	–	–	CN(C)c1nc(Cn2nc(-c3ccc4oc(N)nc4c3)c3c(N)ncnc32)cc2ccccc12 [Compound 2]	< 1000	–
< 100	> 10000	< 10000	–	–	Cc1cccc2cc(Cn3nc(-c4cn[nH]c4)c4c(N)ncnc43)nc(OC3CCN(C)CC3)c12 [Compound 3]	< 100	–
< 100	< 100	< 1000	–	–	Cc1cccc2cc(Cn3nc(-c4ccc5oc(N)nc5c4)c4c(N)ncnc43)nc(OC3CCN(C(C)C)CC3)c12 [Compound 4]	< 100	–
< 100	< 100	< 100	–	–	Cc1cccc2cc(Cn3nc(-c4ccc5oc(N)nc5c4)c4c(N)ncnc43)nc(OC3CCN(C)CC3)c12 [Compound 5]	< 100	–
< 100	< 100	< 1000	–	–	CCN1CCC(Oc2nc(Cn3nc(-c4ccc5oc(N)nc5c4)c4c(N)ncnc43)cc3cccc(C)c23)CC1 [Compound 6]	< 100	–
< 100	> 10000	< 10000	–	–	CCN1CCC(Oc2nc(Cn3nc(-c4cn[nH]c4)c4c(N)ncnc43)cc3cccc(C)c23)CC1 [Compound 7]	< 100	–
< 100	> 10000	> 10000	–	–	Cc1cccc2cc(Cn3nc(-c4cn[nH]c4)c4c(N)ncnc43)nc(OC3CCNCC3)c12 [Compound 9]	< 10000	–
< 100	< 10000	< 10000	–	–	Cc1cccc2cc(Cn3nc(-c4cn[nH]c4)c4c(N)ncnc43)nc(OC3CCN(C(C)C)CC3)c12 [Compound 13]	< 100	–
< 100	> 10000	> 10000	–	–	CCN1CCC(Oc2nc(C(C)Nc3ncnc4[nH]cnc34)cc3cccc(C)c23)CC1 (stereo not drawn) [Compound 16]	< 100	–
< 100	< 100	< 1000	–	–	Cc1cccc2cc(Cn3nc(-c4ccc5oc(N)nc5c4)c4c(N)ncnc43)nc(N3CCN(C)CC3)c12 [Compound 17]	< 100	–
< 100	< 100	–	–	–	Cc1cccc2cc(Cn3nc(-c4ccc5oc(N)nc5c4)c4c(N)ncnc43)nc(N3CCOCC3)c12 [Compound 36]	< 1000	–
< 100	< 10000	–	–	–	Cc1cccc2cc(Cn3nc(-c4cn[nH]c4)c4c(N)ncnc43)nc(N3CCOCC3)c12 [Compound 37]	< 100	–
